First: COc1cccc2c1OCN(CCc1ccc(C)cc1)C2
Second: COc1cccc(CN2CC(=O)Nc3ncc(-c4ccc(O)cc4)nc32)c1
The melting point of the first is lower: 58 to 63 °C for the first, 282 to 283 °C for the second.

First: COC(=O)c1c(Br)ccc2[nH]ncc12
Second: COC(=O)c1nc(Cl)cc(Cl)c1N
The melting point of the first is higher: 164 to 165 °C for the first, 127 to 128 °C for the second.

First: Cc1cc(C)c(Nc2nc(C)ccc2S(=O)(=O)c2ccc(OCc3ccccc3[N+](=O)[O-])cc2)c(C)c1
Second: CCOC(=O)c1cc(NCc2ccccc2)c(Nc2ccc(C)cc2C)c(S(N)(=O)=O)c1
The melting point of the first is lower: 153 to 155 °C for the first, 167 to 168 °C for the second.

Compared with `CCOC(=O)C1CCN2C(=O)C(=O)c3cc(Br)cc1c32` (stereo not drawn), `CCOC(=O)C1CCN(c2ccc(N)cc2C#N)CC1` is lower in melting point: 150 to 151 °C for the first, 98 °C for the second.

First: c1cn2nc(N3CCCCC3)c3c(c2n1)CCCC3
Second: O=Nc1c(O)cc(N2CCCCC2)c2oc3ccccc3c12
The melting point of the first is lower: 95 °C for the first, 181 to 185 °C for the second.

First: CN(C)CC(=O)N1CC(=Cc2ccccc2)C2=NN(C)C(c3ccccc3)C2C1 (stereo not drawn)
Second: CC(=O)NC(Cc1ccccc1)C1CC(Cc2ccccc2)=NO1 (stereo not drawn)
The melting point of the first is higher: 132 to 134 °C for the first, 97.8 to 98.4 °C for the second.

Compared with `CC(C)n1nc(-c2sc(NC(=O)c3ccc(CNCCO)cc3)nc2-c2ccccc2)ccc1=O`, `Cc1nc(-n2ccc(OCc3ccc(C(F)(F)F)cc3)cc2=O)sc1C(=O)NCc1ccccc1` is higher in melting point: 111 to 113 °C for the first, 278 to 280 °C for the second.

First: COC(=O)c1cccc(Cn2ccn(C3CCc4ccccc4C3)c2=S)c1 (stereo not drawn)
Second: CCOC(=O)CC1Cc2ccc(O)cc2Cc2ccccc21 (stereo not drawn)
The melting point of the first is higher: 130 to 132 °C for the first, 110 to 112 °C for the second.

First: CC(=O)NCC1CN=C(c2ccccc2)c2cc(Cl)ccc2N1 (stereo not drawn)
Second: Nc1nc(Sc2ccc(F)cc2)cc(-c2ccccc2)n1
The melting point of the first is higher: 240 to 245 °C for the first, 218 to 220 °C for the second.

First: COc1cc(C#N)ccc1-c1nc2cc3c(cc2[nH]1)NC(=O)C3(C)C
Second: CCCOc1ccc(S(=O)(=O)NCCN(C)C)cc1-c1nc2cc(N)c(N)cc2c(=O)[nH]1
The melting point of the first is higher: 304 to 312 °C for the first, 202 to 204 °C for the second.

First: O=C1CC(O)c2ccccc21 (stereo not drawn)
Second: OC1CC2OCCN3CCC4c5ccccc5N1C4C23 (stereo not drawn)
The melting point of the first is higher: 182 to 187 °C for the first, 180 °C for the second.

First: C=C(C(=O)c1ccc(OC)c(Cl)c1Cl)c1ccc(Br)cc1
Second: Nc1c(CC(=O)O)cccc1Oc1ccc(Cl)cc1Cl
The melting point of the first is lower: 110 to 116 °C for the first, 123 to 124 °C for the second.

First: Cc1cc(SCc2ccc(-c3ccc(C(F)(F)F)cc3)cc2)ccc1OCC(=O)O
Second: COc1cc(C(=O)N2Cc3ccc(C(=O)NCc4cccc(C(F)(F)F)c4)n3Cc3ccccc32)ccc1-c1ccccc1C
The melting point of the first is lower: 140 to 141 °C for the first, 176 to 177 °C for the second.

First: O=C(C=Cc1cccc(-c2ccc(F)cc2)c1)Nc1ccc(CN2CCCCC2)cc1
Second: Cc1ccccc1C(=O)Nc1ccc(C(=O)N2CCCC(C)(O)c3ccccc32)cc1 (stereo not drawn)
The melting point of the first is lower: 166 to 167 °C for the first, 204 to 205 °C for the second.

Compared with `Cc1ccnc(C(=O)c2[nH]c3cc(Cl)ccc3c2NC(=O)[C@H](C)O)c1`, `CCN1N=C(c2ccc(F)cc2)c2cc(Cl)c(Cl)cc2CS1(=O)=O` is higher in melting point: 206 to 207 °C for the first, 218 to 221 °C for the second.

First: CCCCCCCCCCN(OCc1ccccc1)C(=O)Nc1c(C(C)C)cccc1C(C)C
Second: CCCCCCCN(CCN1CCN(CCSc2nc3ncccc3o2)CC1)C(=O)Nc1c(C(C)C)cc(O)cc1C(C)C
The melting point of the first is lower: 91 to 93 °C for the first, 100 to 102 °C for the second.

First: CO[C@]12C[C@@H](CCN3CCC(O)(c4ccc(Cl)cc4)CC3)CN(C)[C@@H]1Cc1c[nH]c3cccc2c13
Second: CC1(C)CC(=O)Nc2c(CCCN3CCN(c4nsc5ccccc45)CC3)cccc21
The melting point of the first is lower: 133 to 139 °C for the first, 166 °C for the second.

First: CCOC(=O)c1cn(-c2cc(N)c(F)cc2F)c2cc(F)c(F)cc2c1=O
Second: CCCc1c(SCCCOc2ccc3c(=O)cc(C(=O)OCC)oc3c2CCC)ccc(C(C)=O)c1N
The melting point of the first is higher: 198 to 205 °C for the first, 103 to 104 °C for the second.

First: O=C(c1cc(Cl)cc(Cl)c1)N1CCc2cc(S(=O)(=O)N3CCN(c4cccc(Cl)c4)CC3)ccc21
Second: O=C1CCC(N2Cc3c(OCc4cc5cc(N6CCCCC6)ccc5o4)cccc3C2=O)C(=O)N1 (stereo not drawn)
The melting point of the first is higher: 262 to 263 °C for the first, 242 to 244 °C for the second.

First: Cc1c(C)c2c(c(C)c1O)CCC(C)(CC(=O)O)O2 (stereo not drawn)
Second: COC(=O)c1ccc(NC(C)=O)c2c1OCCC2
The melting point of the first is lower: 168 to 171 °C for the first, 175 °C for the second.

First: O=C1NC(=O)C(Cc2ccc(Oc3ccc(Oc4ccc(CC5OC(=O)NC5=O)cc4)cc3)cc2)O1 (stereo not drawn)
Second: O=C(NC(Cc1ccc(OCc2ccccc2)cc1)C(=O)O)c1nc2ccc(-c3ccc(Cl)cc3)cc2[nH]1 (stereo not drawn)
The melting point of the first is lower: 93 to 96 °C for the first, 260 to 261 °C for the second.

Compared with `Cc1ccn(-c2ccc(C=O)cc2)n1`, `CCOc1ccc(-n2c(-c3ccncc3)nc(SC)c(C#N)c2=O)cc1` is higher in melting point: 96 to 98 °C for the first, 201 to 204 °C for the second.

Compared with `C[C@H]1CCCC(C)(C)[C@@H]1C(=O)c1cc(F)c(F)c(F)c1`, `CC(=O)C1CCC2C3CCC4CC(=O)C(C)CC4(C)C3C(=O)CC12C` (stereo not drawn) is higher in melting point: 56.7 °C for the first, 176 °C for the second.

First: CN(C)C(=O)NS(=O)(=O)c1ccccc1OC(Cl)=CCl
Second: CC(C)(NS(=O)(=O)c1ccc2c(Cl)cnc(Cl)c2c1)C(N)=O
The melting point of the first is lower: 218 to 220 °C for the first, 220 to 222 °C for the second.

First: O=C(OCCc1ccccn1)Oc1ccc([N+](=O)[O-])cc1
Second: CCCOc1ccccc1-c1ccc([N+](=O)[O-])c(=O)[nH]1
The melting point of the first is lower: 125 to 127 °C for the first, 198 to 200 °C for the second.

Compared with `Cc1nc(-c2ccc(C(=O)N[C@H]3CC[C@H](CCN4CCC(c5cccc6c5CCO6)CC4)CC3)cc2)no1`, `CCc1nc2c(cnn2CC)c(NC2CCOCC2)c1CNC(=O)c1cccc(C(=O)NCc2ccc(F)c(-c3cccc(CN4CCCNCC4)c3)c2)c1` is lower in melting point: 256 °C for the first, 145 to 148 °C for the second.

First: CC(C)(C)OC(=O)c1ccc(OCCNC(=O)C2Cc3ccccc3N2S(=O)(=O)c2ccc(-c3ccc(F)cc3Cl)cc2)cc1 (stereo not drawn)
Second: CCOC(=O)C1Cc2cc(OC)c(OC)cc2C(c2ccccc2)N1C(=O)CNC(=O)OC(C)(C)C (stereo not drawn)
The melting point of the first is lower: 78 °C for the first, 166 to 167 °C for the second.

Compared with `Cc1nc2ccccc2n2cnc(-c3noc(C4CC4)n3)c12`, `COc1cc2c(c3c1OC(C)(C)C3)C(c1cccc(-c3ccc4ccccc4n3)c1)=NC(C)(C)C2` is higher in melting point: 165 to 167 °C for the first, 167 to 169 °C for the second.

First: CS(=O)(=O)Nc1ccc(CCNC(=O)c2cc3cc(O)ccc3cc2O)cc1
Second: Oc1ccc(-c2ccc3c(Br)c(O)ccc3c2)cc1
The melting point of the first is lower: 176 to 178 °C for the first, 208 to 210 °C for the second.

Compared with `Cn1c(=O)[nH]c2cc(CC(=O)O)ccc21`, `CC(=O)Nc1ccc2c(c1)CCC(CC#N)C2=O` (stereo not drawn) is lower in melting point: 220 °C for the first, 189 to 190 °C for the second.

First: CCOC(=O)N(c1ccccc1N=NC(NC(=O)CCl)(C(=O)OCC)C(=O)OCC)c1cccc(C)c1C
Second: COC(=O)CCCc1cc2nc(Cl)ccc2n1S(=O)(=O)c1ccccc1
The melting point of the first is higher: 120 to 122 °C for the first, 85 to 90 °C for the second.

First: CN1CCN(C(=O)c2cn(C)nc2Nc2ccc(C(F)(F)F)cc2N)CC1
Second: COc1ccc(CCNC(=O)C(F)(F)F)cc1NC(C)=O
The melting point of the first is higher: 170 °C for the first, 105 to 106 °C for the second.

First: COc1ccc(N2CCN(CCn3c(=O)[nH]c4cscc4c3=O)CC2)cc1
Second: CC(=O)c1cc2c(s1)SCCN(CCCCN1CCN(c3ncccn3)CC1)C2=O
The melting point of the first is higher: 238 to 239 °C for the first, 118 to 120 °C for the second.

Compared with `Nc1[nH]c(=O)[nH]c(=O)c1N`, `N#Cc1c(=O)[nH]c2cc(Cl)c(Cl)cc2[n+]1[O-]` is higher in melting point: 144 to 146 °C for the first, 294 to 296 °C for the second.

Compared with `Cn1c(C(F)(F)F)cc(=O)n(-c2ccc(Cl)c(S(N)(=O)=O)c2)c1=O`, `CS(=O)(=O)c1cc(C(=O)O)cc(NCc2ccco2)c1Cl` is lower in melting point: 257 to 258 °C for the first, 216 °C for the second.

First: CCOC(C)OCc1ccccc1C(=NO)C(=O)NC (stereo not drawn)
Second: CC(C)C[C@H](NC(=O)c1ccccc1)C(=O)NC#N
The melting point of the first is lower: 85 to 87 °C for the first, 136 to 137 °C for the second.

Compared with `N#Cc1ccc(C=O)c(N2CCCC2)c1`, `Clc1cc(Cl)nc(N2CCSCC2)n1` is lower in melting point: 121 °C for the first, 79.5 to 81.5 °C for the second.

Compared with `COC1(OC)CC2CC[C@@]1(CS(=O)(=O)N(C(C)C)C(C)C)C2(C)C`, `COc1cc(OC)nc(C(C(=O)NS(C)(=O)=O)C(C)C)n1` (stereo not drawn) is higher in melting point: 73.8 to 74.6 °C for the first, 99 to 102 °C for the second.

First: Cc1cccc(CC(Nc2ccccc2)C(=O)NC(C#N)COCc2cccc(-c3nnn[nH]3)c2)c1 (stereo not drawn)
Second: Cc1oc(-c2ccccc2)nc1COc1ccc(Cn2cc(CCC(=O)O)c(OCc3ccccc3)n2)cc1
The melting point of the first is higher: 120 to 122 °C for the first, 108 to 109 °C for the second.

Compared with `Fc1ccc(F)c(C(Sc2ccc(Cl)cc2)c2ccc(CSc3ccc(Cl)cc3)cn2)c1` (stereo not drawn), `FC(F)Sc1ccc(-c2ccc(Cl)cc2)[nH]1` is lower in melting point: 87 to 88 °C for the first, 42 to 46 °C for the second.

First: CCN(CC)CCSc1ccc(/C=C/C(=O)OC)cc1[N+](=O)[O-]
Second: C=CCOC(=O)c1c(Oc2nc(OC)cc(OC)n2)ccc2[nH]c(C)c(N)c12
The melting point of the first is lower: 57.4 to 59.1 °C for the first, 132 to 135 °C for the second.

`NC(=O)c1cc2ccc(F)cc2nc1N` and `O=P1(O)Oc2c(Cl)cc(Cl)cc2-c2ccc(Cl)cc21` cannot be ordered by melting point: 259 to 262 °C for the first, 260 °C for the second.

First: CCCCCCCCCNC(=O)CCC(=O)O
Second: CCCCC1(CCn2ccnc2)SCCS1
The melting point of the first is higher: 114 to 116 °C for the first, 105 to 108 °C for the second.

First: CC(Cl)=CCC1CCC2C(C=CC3=CCCc4c3n2c2ccncc42)C1 (stereo not drawn)
Second: Nc1ccc(C=CC(=O)N2CCc3c([nH]c4ccccc34)C2c2ccc3c(c2)CCO3)cc1 (stereo not drawn)
The melting point of the first is lower: 130 to 132 °C for the first, 183 °C for the second.

First: COc1cccc(-c2cn3cc(-c4cccc(CO)c4F)ccc3n2)c1
Second: CNC(=O)c1ccn2c(C(=O)N3CCNCC3)c(Cc3cccc(F)c3C)c(-c3ccccc3)c2c1
The melting point of the first is lower: 143 to 144 °C for the first, 205 °C for the second.

Compared with `CSc1ccc(-c2coc3ccc(-c4nnc(C)o4)cc23)cc1C`, `CCCCc1oc2ccccc2c1C(=O)Nc1ccc2c(Br)c(OCc3nn[nH]n3)ccc2c1` is higher in melting point: 185 to 186 °C for the first, 242 to 245 °C for the second.

Compared with `CC(C)CCCC(C)NC1=NS(=O)(=O)c2sc(Cl)cc2N1` (stereo not drawn), `CC(C)CN1C(N)=CC(=O)N2CCN=C21` is higher in melting point: 197 to 199 °C for the first, 230 to 232 °C for the second.

`NS(=O)(=O)c1cccc2c1COC2` and `O=C(Nc1ccc(C2(O)CCN(C(=O)OCc3ccccc3)CC2)cc1)OCc1ccccc1` cannot be ordered by melting point: 153 to 158 °C for the first, 156 to 158 °C for the second.

First: Cc1ccc2c(c1)C=Cc1cc(C)ccc1C2c1cn(Cc2nc(C(=O)O)cs2)c(=O)[nH]c1=S
Second: CC(=O)OC1CC(=O)N1 (stereo not drawn)
The melting point of the first is higher: 200 to 205 °C for the first, 152 to 154 °C for the second.
